Experiments:
[1] = biological target: CR3 I-domain; test: SPR, CR3 I domain binding to immobilized Aβ or iC3b; design: species or system human; conditions: pH 7.4, 1 mM MgCl2; EVILFIT 2D distribution
Procedure: (§1) SPR assays were performed using CM-4 chips (cat no. 50-105-5323, Cytiva) and run in the BIAcore 3000 instrument (GE Health Care). As described, the chip surfaces were coupled with monomeric Aβ, aggregated Aβ, or iC3b using an amine-coupling chemistry method. A reference surface was prepared by coupling the surfaces with ethanolamine rather than protein. The CR3 and CR4 I domains were stabilized in the activated conformation by mutation of a C-terminal isoleucine residue to glycine and prepared as described earlier. […] The prepared solutions were injected over the surfaces; the contact time (tc) was 180 s, and the following dissociation phase time was 400 s. […] The distribution P (kd, KD) was calculated using the discretization of the equation:1 STotal=∫KDminKDmax∫koffminkoffmaxSkoff,KD,canalyte,tPkoff,KDdkoffdKD where S is the SPR signal. […] This was done through a global fit to the association and dissociation traces at the analyte concentrations (canalyte) mentioned above. The algorithm used Tikhonov regularization as described[44] at a confidence level of p = 0.95 to determine the most parsimonious distribution consistent with the data, showing only features essential to fit the data.

[2] = biological target: T1, CR4 I-domain (Homo sapiens, UniProt P20702, I333G); test: SPR, CR4 I domain binding to immobilized Aβ or iC3b; conditions: even at high concentrations of the CR4 I-domain (up to 10000 nM)
T1 construct: made in house
T1 sequence (P20702 165-339 I333G limits assumed): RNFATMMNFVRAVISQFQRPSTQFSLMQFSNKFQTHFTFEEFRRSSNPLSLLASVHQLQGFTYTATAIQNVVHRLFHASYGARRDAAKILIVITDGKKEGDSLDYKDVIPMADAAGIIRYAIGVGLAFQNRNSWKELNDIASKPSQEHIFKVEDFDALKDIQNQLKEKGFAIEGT
Procedure: as §1

[3] = tested on: iPSC-derived microglia; test: Lysosomal activity of iPSC-derived microglia (LysoTracker); type: cell-based, human; conditions: Aβ 5 µg/mL, 60 min, 37 °C
Procedure: (§2) For microglial differentiation, the human induced pluripotent stem cell (iPSC) line BIHi043A-XM001 was used[56]. Cells were cultured on Matrigel™ (cat. no. 356234, Corning)-coated culture plates in Essential 8™ Flex Medium (cat. no. A2858501, Gibco). The culture medium was changed daily, and cells were passaged in clusters every 3–4 days at a density of 80% using 0.5 mM EDTA/PBS. iPSCs were differentiated into microglia using the protocol described[72]. First, iPSCs were differentiated into hematopoietic progenitors (HP) using STEMdiff™ Hematopoietic Kit (cat. No. 05310, Stem Cell Technologies). On Day −1, iPSCs with a 70–80% density were passaged with ReLeSR™ (cat. no. 05872, Stem Cell Technologies) into E8 flex containing Matrigel-coated 6-well plates. Clusters of 100 cells were seeded at the desired density of 50–100 per well. At Day 0, in wells with 40–80 clusters, the E8 flex medium was replaced with 2 mL medium A. On Day 2, 1 mL of medium A was added to the well. On Day 3, the medium was removed and replaced with 2 mL Medium B. On Days 5, 7, and 9, 1 mL of medium B was added to the well. […] The adherent cells were gently washed off to increase the yield using a 5 mL serological pipette. […] On Days 13, 15, 17, 19, and 21, 1 mL of microglia differentiation medium was added to the well. […] On Days 38–42, the microglia were ready for functional studies. […]

[4] = tested on: CR4 (CD11c); test: CR4 (CD11c) surface expression on iPSC-derived microglia; type: cell-based, human; conditions: Aβ 5 µg/mL, 60 min, 37 °C
Procedure: as §2

[5] = tested on: CR3 (CD11b); test: CR3 (CD11b) surface expression on iPSC-derived microglia; type: cell-based, human; conditions: Aβ 5 µg/mL, 60 min, 37 °C
Procedure: as §2

[6] = tested on: Aβ; test: FDM-NTA of synthetic Aβ in PBS, QD-antibody conjugates; type: binding, human; conditions: PBS pH 7.4; detected by aducanumab biosimilar; A-Aβ value on average
Procedure: QD Ab (Ab) coupling was performed using SiteClick Qdot 655 Ab Labeling Kit (no. S10453; Molecular Probes) according to manufactures instructions. In brief, Ab, either “Aducanumab biosimilar” human IgG1,κ to aggregated Aβ (cat. no. PX-TA1335, lot. no. 040721-A01, ProteoGenix), or “Isotype control” human IgG1,κ (cat.no. HG1K, lot.no. MA14OC2803, SinoBiologicals) was concentrated in Ab preparation buffer to a concentration of 2 mg/mL or above. The buffer was simultaneously changed to 0.05 M Tris, pH 7.0. Next, carbohydrates on the Ab were modified by incubation with β-galactosidase for 4 h at 37 °C. […]
Samples for NTA were analyzed using a NanoSight NS300 system (Malvern Panalytical). The system was configured with a 405-nm laser, a high-sensitivity scientific complementary metal–oxide–semiconductor Orca Flash 2.8/Hamamatsu C11440 camera (Malvern Panalytical), a syringe pump, and for fluorescence measurements, a 650-nm long-pass filter was used. […] The videos were collected and analyzed using NanoSight software (version 3.3 and 3.4 with a concentration upgrade; Malvern). […] The camera level was set for both scattering and fluorescence mode to a maximum of 16. […] Only samples analyzed with the same detection threshold were compared. Pure protein was analyzed in PBS/EDTA with and without a 1:20,000 dilution of anti-Aβ (Aducanumab bios.) or isotype-matched Ab-QD reporters. […]

For “M-Aβ: Unaggregated and mainly monomeric synthetic human Aβ”, the Kd [1] was about 79 µM, the koff [1] was 0.11 s⁻¹ and the “Interaction with CR4 I-domain” value [2] was “no interaction”. The “Lysosomal activity of iMGs” value [3] was “no such ability”, the “CD11c (CR4) surface expression” value [4] was “KIM127 Ab did not influence the CD11c expression” and the “CD11b (CR3) surface expression” value [5] was “not affected”. The “Particles above 600 nm” value [6] was “less than 0.5 × 10^6 particles/mL”.
